Experimental data taken from the NIST ThermoML archive (doi:10.1021/acs.jced.7b00121).
± gives the expanded uncertainty stated by the source.

conditions: 288.15 K; 101.33 kPa; Liquid; Falling or rolling sphere viscometry

Structure (SMILES)	viscosity [mPa·s]
CCCCCCCCCC [decane]	0.987 ± 0.099
CCCCCCC [heptane]	0.432 ± 0.043
CCCCCCCCC [nonane]	0.763 ± 0.077
CCCCCCCC [octane]	0.585 ± 0.059

same assay, conditions: 288.15 K; 101.33 kPa; Liquid; Vibrating tube method

Structure (SMILES)	mass density [kg/m3]
CCCCCCCCCC [decane]	733.57 ± 1.5
CCCCCCC [heptane]	688.13 ± 1.4
CCCCCCCCC [nonane]	721.64 ± 1.4
CCCCCCCC [octane]	706.54 ± 1.4

same assay, conditions: 293.15 K; 101.33 kPa; Liquid; Falling or rolling sphere viscometry

Structure (SMILES)	viscosity [mPa·s]
CCCCCCCCCC [decane]	0.915 ± 0.092
CCCCCCC [heptane]	0.412 ± 0.041
CCCCCCCCC [nonane]	0.713 ± 0.072
CCCCCCCC [octane]	0.552 ± 0.055

same assay, conditions: 293.15 K; 101.33 kPa; Liquid; Vibrating tube method

Structure (SMILES)	mass density [kg/m3]
CCCCCCCCCC [decane]	729.81 ± 1.5
CCCCCCC [heptane]	683.93 ± 1.4
CCCCCCCCC [nonane]	717.78 ± 1.4
CCCCCCCC [octane]	702.53 ± 1.4

same assay, conditions: 298.15 K; 101.33 kPa; Liquid; Falling or rolling sphere viscometry

Structure (SMILES)	viscosity [mPa·s]
CCCCCCCCCC [decane]	0.852 ± 0.085
CCCCCCC [heptane]	0.393 ± 0.039
CCCCCCCCC [nonane]	0.669 ± 0.067
CCCCCCCC [octane]	0.523 ± 0.052

same assay, conditions: 298.15 K; 101.33 kPa; Liquid; Vibrating tube method

Structure (SMILES)	mass density [kg/m3]
CCCCCCCCCC [decane]	726.05 ± 1.5
CCCCCCC [heptane]	679.71 ± 1.4
CCCCCCCCC [nonane]	713.91 ± 1.4
CCCCCCCC [octane]	698.51 ± 1.4

same assay, conditions: 303.15 K; 101.33 kPa; Liquid; Falling or rolling sphere viscometry

Structure (SMILES)	viscosity [mPa·s]
CCCCCCCCCC [decane]	0.797 ± 0.08
CCCCCCC [heptane]	0.377 ± 0.038
CCCCCCCCC [nonane]	0.63 ± 0.063
CCCCCCCC [octane]	0.496 ± 0.05

same assay, conditions: 303.15 K; 101.33 kPa; Liquid; Vibrating tube method

Structure (SMILES)	mass density [kg/m3]
CCCCCCCCCC [decane]	722.28 ± 1.4
CCCCCCC [heptane]	675.47 ± 1.4
CCCCCCCCC [nonane]	710.03 ± 1.4
CCCCCCCC [octane]	694.48 ± 1.4

same assay, conditions: 308.15 K; 101.33 kPa; Liquid; Falling or rolling sphere viscometry

Structure (SMILES)	viscosity [mPa·s]
CCCCCCCCCC [decane]	0.747 ± 0.075
CCCCCCC [heptane]	0.362 ± 0.036
CCCCCCCCC [nonane]	0.594 ± 0.06
CCCCCCCC [octane]	0.473 ± 0.047

same assay, conditions: 308.15 K; 101.33 kPa; Liquid; Vibrating tube method

Structure (SMILES)	mass density [kg/m3]
CCCCCCCCCC [decane]	718.49 ± 1.4
CCCCCCC [heptane]	671.2 ± 1.4
CCCCCCCCC [nonane]	706.12 ± 1.4
CCCCCCCC [octane]	690.42 ± 1.4

same assay, conditions: 313.15 K; 101.33 kPa; Liquid; Falling or rolling sphere viscometry

Structure (SMILES)	viscosity [mPa·s]
CCCCCCCCCC [decane]	0.703 ± 0.07
CCCCCCC [heptane]	0.348 ± 0.035
CCCCCCCCC [nonane]	0.564 ± 0.057
CCCCCCCC [octane]	0.45 ± 0.045

same assay, conditions: 313.15 K; 101.33 kPa; Liquid; Vibrating tube method

Structure (SMILES)	mass density [kg/m3]
CCCCCCCCCC [decane]	714.69 ± 1.4
CCCCCCC [heptane]	666.89 ± 1.4
CCCCCCCCC [nonane]	702.2 ± 1.4
CCCCCCCC [octane]	686.34 ± 1.4

same assay, conditions: 318.15 K; 101.33 kPa; Liquid; Falling or rolling sphere viscometry

Structure (SMILES)	viscosity [mPa·s]
CCCCCCCCCC [decane]	0.663 ± 0.066
CCCCCCC [heptane]	0.335 ± 0.034
CCCCCCCCC [nonane]	0.535 ± 0.054
CCCCCCCC [octane]	0.431 ± 0.043

same assay, conditions: 318.15 K; 101.33 kPa; Liquid; Vibrating tube method

Structure (SMILES)	mass density [kg/m3]
CCCCCCCCCC [decane]	710.88 ± 1.4
CCCCCCC [heptane]	662.55 ± 1.4
CCCCCCCCC [nonane]	698.26 ± 1.4
CCCCCCCC [octane]	682.24 ± 1.4

same assay, conditions: 323.15 K; 101.33 kPa; Liquid; Falling or rolling sphere viscometry

Structure (SMILES)	viscosity [mPa·s]
CCCCCCCCCC [decane]	0.627 ± 0.063
CCCCCCC [heptane]	0.324 ± 0.033
CCCCCCCCC [nonane]	0.509 ± 0.051
CCCCCCCC [octane]	0.412 ± 0.041

same assay, conditions: 323.15 K; 101.33 kPa; Liquid; Vibrating tube method

Structure (SMILES)	mass density [kg/m3]
CCCCCCCCCC [decane]	707.06 ± 1.4
CCCCCCC [heptane]	658.19 ± 1.3
CCCCCCCCC [nonane]	694.3 ± 1.4
CCCCCCCC [octane]	678.11 ± 1.4

same assay, conditions: 328.15 K; 101.33 kPa; Liquid; Falling or rolling sphere viscometry

Structure (SMILES)	viscosity [mPa·s]
CCCCCCCCCC [decane]	0.593 ± 0.059
CCCCCCC [heptane]	0.312 ± 0.031
CCCCCCCCC [nonane]	0.485 ± 0.049
CCCCCCCC [octane]	0.395 ± 0.04

same assay, conditions: 328.15 K; 101.33 kPa; Liquid; Vibrating tube method

Structure (SMILES)	mass density [kg/m3]
CCCCCCCCCC [decane]	703.21 ± 1.4
CCCCCCC [heptane]	653.79 ± 1.3
CCCCCCCCC [nonane]	690.33 ± 1.4
CCCCCCCC [octane]	673.95 ± 1.4

same assay, conditions: 333.15 K; 101.33 kPa; Liquid; Falling or rolling sphere viscometry

Structure (SMILES)	viscosity [mPa·s]
CCCCCCCCCC [decane]	0.563 ± 0.056
CCCCCCC [heptane]	0.302 ± 0.03
CCCCCCCCC [nonane]	0.462 ± 0.046
CCCCCCCC [octane]	0.379 ± 0.038

same assay, conditions: 333.15 K; 101.33 kPa; Liquid; Vibrating tube method

Structure (SMILES)	mass density [kg/m3]
CCCCCCCCCC [decane]	699.36 ± 1.4
CCCCCCC [heptane]	649.33 ± 1.3
CCCCCCCCC [nonane]	686.34 ± 1.4
CCCCCCCC [octane]	669.77 ± 1.4

same assay, conditions: 338.15 K; 101.33 kPa; Liquid; Falling or rolling sphere viscometry

Structure (SMILES)	viscosity [mPa·s]
CCCCCCCCCC [decane]	0.536 ± 0.054
CCCCCCC [heptane]	0.293 ± 0.029
CCCCCCCCC [nonane]	0.443 ± 0.044
CCCCCCCC [octane]	0.365 ± 0.037

same assay, conditions: 338.15 K; 101.33 kPa; Liquid; Vibrating tube method

Structure (SMILES)	mass density [kg/m3]
CCCCCCCCCC [decane]	695.48 ± 1.4
CCCCCCC [heptane]	644.84 ± 1.3
CCCCCCCCC [nonane]	682.31 ± 1.4
CCCCCCCC [octane]	665.55 ± 1.4

same assay, conditions: 343.15 K; 101.33 kPa; Liquid; Falling or rolling sphere viscometry

Structure (SMILES)	viscosity [mPa·s]
CCCCCCCCCC [decane]	0.512 ± 0.051
CCCCCCC [heptane]	0.284 ± 0.029
CCCCCCCCC [nonane]	0.425 ± 0.043
CCCCCCCC [octane]	0.352 ± 0.035

same assay, conditions: 343.15 K; 101.33 kPa; Liquid; Vibrating tube method

Structure (SMILES)	mass density [kg/m3]
CCCCCCCCCC [decane]	691.59 ± 1.4
CCCCCCC [heptane]	640.29 ± 1.3
CCCCCCCCC [nonane]	678.26 ± 1.4
CCCCCCCC [octane]	661.28 ± 1.3
